Reference: PubChem BioAssay (NCI)
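Cultured in 96-well plates, cells were exposed to test compound for 48 hours across five concentrations. The concentration for full growth arrest is given as TGI.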

Legend:
Test in all cases: NCI-60 cell line screen, 48 h
HCT-15 colon = tested on: HCT-15 colon
M14 melanoma = tested on: M14 melanoma
HCC-2998 colon = tested on: HCC-2998 colon
HOP-92 NSCLC = tested on: HOP-92 NSCLC
EKVX NSCLC = tested on: EKVX NSCLC
HS 578T breast = tested on: HS 578T breast
KM12 colon = tested on: KM12 colon
HCT-116 colon = tested on: HCT-116 colon
NCI-H23 lung = tested on: NCI-H23 lung
HOP-62 NSCLC = tested on: HOP-62 NSCLC
SNB-75 CNS = tested on: SNB-75 CNS
MOLT-4 leukemia = tested on: MOLT-4 leukemia
MDA-MB-435 = tested on: MDA-MB-435
MALME-3M melanoma = tested on: MALME-3M melanoma
NCI/ADR-RES ovarian = tested on: NCI/ADR-RES ovarian
SF-268 CNS = tested on: SF-268 CNS
T-47D breast = tested on: T-47D breast
U251 CNS = tested on: U251 CNS
SF-295 CNS = tested on: SF-295 CNS
SF-539 CNS = tested on: SF-539 CNS
NCI-H522 lung = tested on: NCI-H522 lung
OVCAR-8 ovarian = tested on: OVCAR-8 ovarian
SK-MEL-28 melanoma = tested on: SK-MEL-28 melanoma
SN12C renal = tested on: SN12C renal
UO-31 renal = tested on: UO-31 renal
OVCAR-4 ovarian = tested on: OVCAR-4 ovarian
ACHN renal = tested on: ACHN renal
SW-620 colon = tested on: SW-620 colon
SNB-19 CNS = tested on: SNB-19 CNS
SK-MEL-5 melanoma = tested on: SK-MEL-5 melanoma
UACC-257 melanoma = tested on: UACC-257 melanoma
MCF7 breast = tested on: MCF7 breast
DU-145 prostate = tested on: DU-145 prostate
786-0 renal = tested on: 786-0 renal
A549 NSCLC = tested on: A549 NSCLC
SR leukemia = tested on: SR leukemia
CCRF-CEM leukemia = tested on: CCRF-CEM leukemia
COLO 205 colon = tested on: COLO 205 colon
LOX IMVI melanoma = tested on: LOX IMVI melanoma
MDA-MB-231 breast = tested on: MDA-MB-231 breast
TK-10 renal = tested on: TK-10 renal
NCI-H460 lung = tested on: NCI-H460 lung
CAKI-1 renal = tested on: CAKI-1 renal
MDA-N = tested on: MDA-N
RXF 393 renal = tested on: RXF 393 renal
OVCAR-5 ovarian = tested on: OVCAR-5 ovarian
A498 renal = tested on: A498 renal
PC-3 prostate = tested on: PC-3 prostate
SK-MEL-2 melanoma = tested on: SK-MEL-2 melanoma
HT29 colon = tested on: HT29 colon
IGROV1 ovarian = tested on: IGROV1 ovarian
NCI-H226 lung = tested on: NCI-H226 lung
K-562 leukemia = tested on: K-562 leukemia
SK-OV-3 ovarian = tested on: SK-OV-3 ovarian
RPMI-8226 leukemia = tested on: RPMI-8226 leukemia
OVCAR-3 ovarian = tested on: OVCAR-3 ovarian
HL-60(TB) leukemia = tested on: HL-60(TB) leukemia
UACC-62 melanoma = tested on: UACC-62 melanoma

Measured: TGI

CCCc1cc(=O)c2c(C)c3[nH]c4ccc(Cl)cc4c3c(C)c2[nH]1
3.96 µM: SF-295 CNS
3.09 µM: HCT-116 colon
5.1 µM: HOP-92 NSCLC
3.34 µM: UO-31 renal
3.79 µM: NCI-H460 lung
12.8 µM: NCI-H226 lung
3.86 µM: RXF 393 renal
3.65 µM: U251 CNS
32.7 µM: HS 578T breast
3.08 µM: 786-0 renal
12.3 µM: KM12 colon
9.52 µM: M14 melanoma
4.81 µM: A549 NSCLC
18.9 µM: DU-145 prostate
3.14 µM: SK-MEL-28 melanoma
5.31 µM: SN12C renal
4.7 µM: IGROV1 ovarian
3.9 µM: MDA-N
3.88 µM: T-47D breast
10.5 µM: NCI-H23 lung
4.06 µM: TK-10 renal
3.02 µM: HCC-2998 colon
3.89 µM: COLO 205 colon
4.51 µM: NCI-H522 lung
3.71 µM: ACHN renal
3.11 µM: MDA-MB-435
8.9 µM: SNB-19 CNS
10.2 µM: NCI/ADR-RES ovarian
3.43 µM: OVCAR-4 ovarian
6.31 µM: OVCAR-8 ovarian
5.58 µM: OVCAR-5 ovarian
5.83 µM: CCRF-CEM leukemia
2.92 µM: A498 renal
21.4 µM: SK-MEL-5 melanoma
24.1 µM: SF-268 CNS
3.31 µM: HT29 colon
7.72 µM: EKVX NSCLC
7.93 µM: SNB-75 CNS
14.7 µM: PC-3 prostate
4.93 µM: SR leukemia
4.37 µM: CAKI-1 renal
14.6 µM: SK-MEL-2 melanoma
6.15 µM: HOP-62 NSCLC
4.29 µM: SW-620 colon
23 µM: MALME-3M melanoma
3.97 µM: MDA-MB-231 breast
4.74 µM: UACC-257 melanoma
3.37 µM: HCT-15 colon | MCF7 breast
3.33 µM: LOX IMVI melanoma
3.56 µM: SF-539 CNS
> 100 µM: MOLT-4 leukemia

O=C(Nc1ccc(Br)cc1)c1c(-c2ccccc2)c2ccc(O)cc2oc1=O
> 10 µM: HCT-15 colon | M14 melanoma | HCC-2998 colon | HOP-92 NSCLC | EKVX NSCLC | HS 578T breast | KM12 colon | NCI-H23 lung | HOP-62 NSCLC | SNB-75 CNS | MOLT-4 leukemia | MDA-MB-435 | MALME-3M melanoma | NCI/ADR-RES ovarian | K-562 leukemia | SF-268 CNS | T-47D breast | SK-OV-3 ovarian | U251 CNS | RPMI-8226 leukemia | OVCAR-3 ovarian | SF-295 CNS | SF-539 CNS | NCI-H522 lung | OVCAR-8 ovarian | SK-MEL-28 melanoma | SN12C renal | UO-31 renal | OVCAR-4 ovarian | ACHN renal | SW-620 colon | SK-MEL-5 melanoma | UACC-257 melanoma | MCF7 breast | DU-145 prostate | 786-0 renal | SR leukemia | CCRF-CEM leukemia | COLO 205 colon | LOX IMVI melanoma | MDA-MB-231 breast | TK-10 renal | NCI-H460 lung | CAKI-1 renal | HL-60(TB) leukemia | MDA-N | RXF 393 renal | OVCAR-5 ovarian | A498 renal | PC-3 prostate | SK-MEL-2 melanoma | HT29 colon | IGROV1 ovarian | NCI-H226 lung

CC(C)OP(=O)(OC(C)C)c1c(Nc2ccccc2)n[nH]c1N
> 100 µM: HCT-15 colon | M14 melanoma | HCC-2998 colon | HOP-92 NSCLC | EKVX NSCLC | HS 578T breast | KM12 colon | NCI-H23 lung | HOP-62 NSCLC | SNB-75 CNS | MOLT-4 leukemia | MDA-MB-435 | MALME-3M melanoma | NCI/ADR-RES ovarian | K-562 leukemia | SF-268 CNS | T-47D breast | SK-OV-3 ovarian | U251 CNS | RPMI-8226 leukemia | OVCAR-3 ovarian | UACC-62 melanoma | SF-295 CNS | SF-539 CNS | NCI-H522 lung | OVCAR-8 ovarian | SK-MEL-28 melanoma | UO-31 renal | OVCAR-4 ovarian | ACHN renal | SW-620 colon | SNB-19 CNS | SK-MEL-5 melanoma | UACC-257 melanoma | MCF7 breast | DU-145 prostate | A549 NSCLC | SR leukemia | CCRF-CEM leukemia | COLO 205 colon | LOX IMVI melanoma | MDA-MB-231 breast | TK-10 renal | NCI-H460 lung | CAKI-1 renal | MDA-N | RXF 393 renal | OVCAR-5 ovarian | A498 renal | PC-3 prostate | SK-MEL-2 melanoma | HT29 colon | IGROV1 ovarian | NCI-H226 lung

CN1C(=O)N(c2ccccc2)C2(CCN(CC3COc4ccccc4O3)CC2)C1=O (stereo unspecified)
56.6 µM: SNB-19 CNS
89.2 µM: OVCAR-3 ovarian
> 100 µM: HCT-15 colon | M14 melanoma | HCC-2998 colon | HOP-92 NSCLC | EKVX NSCLC | HS 578T breast | KM12 colon | HCT-116 colon | NCI-H23 lung | HOP-62 NSCLC | MOLT-4 leukemia | MDA-MB-435 | MALME-3M melanoma | NCI/ADR-RES ovarian | K-562 leukemia | SF-268 CNS | T-47D breast | U251 CNS | RPMI-8226 leukemia | UACC-62 melanoma | SF-295 CNS | SF-539 CNS | NCI-H522 lung | OVCAR-8 ovarian | SK-MEL-28 melanoma | SN12C renal | UO-31 renal | OVCAR-4 ovarian | ACHN renal | SK-MEL-5 melanoma | UACC-257 melanoma | MCF7 breast | DU-145 prostate | 786-0 renal | A549 NSCLC | SR leukemia | CCRF-CEM leukemia | COLO 205 colon | LOX IMVI melanoma | MDA-MB-231 breast | TK-10 renal | NCI-H460 lung | CAKI-1 renal | HL-60(TB) leukemia | MDA-N | RXF 393 renal | OVCAR-5 ovarian | A498 renal | PC-3 prostate | SK-MEL-2 melanoma | HT29 colon | IGROV1 ovarian | NCI-H226 lung
36.4 µM: SW-620 colon
